Numbers after ± are expanded uncertainties.
Experiment: xn = mol fraction of the nth substance listed
Settings: Gas, Buoyancy - hydrostatic balance with magnetic suspension - one sinker

FCC(F)(F)F [1,1,1,2-tetrafluoroethane] + CCC
Settings	mass density [kg/m3]
278.16 K, 230.77 kPa, x1 = 0.7989	9.5443 ± 0.018
278.19 K, 442.42 kPa, x1 = 0.2391	12.1807 ± 0.017
278.2 K, 102.16 kPa, x1 = 0.2391	2.6113 ± 0.01
278.2 K, 233.61 kPa, x1 = 0.2391	6.1346 ± 0.012
278.2 K, 514.55 kPa, x1 = 0.2391	14.4261 ± 0.018
278.21 K, 366.56 kPa, x1 = 0.2391	9.9124 ± 0.015
283.13 K, 211.19 kPa, x1 = 0.7822	8.4187 ± 0.017
283.13 K, 329.43 kPa, x1 = 0.7822	13.5211 ± 0.021
283.13 K, 459.52 kPa, x1 = 0.7822	19.5449 ± 0.026
283.14 K, 311.18 kPa, x1 = 0.5401	10.6211 ± 0.017
283.14 K, 501.49 kPa, x1 = 0.5401	17.8976 ± 0.023
283.15 K, 101.13 kPa, x1 = 0.5401	3.3055 ± 0.013
283.15 K, 102.6 kPa, x1 = 0.7822	3.9912 ± 0.015
283.15 K, 120.94 kPa, x1 = 0.6201	4.2161 ± 0.014
283.15 K, 198.01 kPa, x1 = 0.6201	7.0141 ± 0.016
283.15 K, 210.93 kPa, x1 = 0.5401	7.0468 ± 0.015
283.15 K, 416.97 kPa, x1 = 0.5401	14.5789 ± 0.02
283.15 K, 602.24 kPa, x1 = 0.5401	22.0672 ± 0.027
283.16 K, 415.7 kPa, x1 = 0.6201	15.476 ± 0.021
283.16 K, 514.53 kPa, x1 = 0.6201	19.6465 ± 0.025
283.17 K, 114.18 kPa, x1 = 0.2391	2.8713 ± 0.0099
283.17 K, 457.55 kPa, x1 = 0.2391	12.3388 ± 0.017
283.17 K, 636.31 kPa, x1 = 0.2391	17.9209 ± 0.021
283.18 K, 185.02 kPa, x1 = 0.2391	4.7134 ± 0.011
283.18 K, 298.86 kPa, x1 = 0.2391	7.7872 ± 0.013
283.18 K, 383.01 kPa, x1 = 0.2391	10.158 ± 0.015
288.1 K, 100.89 kPa, x1 = 0.7822	3.85 ± 0.015
288.12 K, 214.43 kPa, x1 = 0.7822	8.3795 ± 0.017
288.12 K, 325.43 kPa, x1 = 0.7822	13.0428 ± 0.021
288.12 K, 552.55 kPa, x1 = 0.7822	23.4956 ± 0.03
288.12 K, 552.56 kPa, x1 = 0.7822	23.4963 ± 0.03
288.12 K, 709.34 kPa, x1 = 0.5401	26.0161 ± 0.031
288.13 K, 102.08 kPa, x1 = 0.5401	3.2763 ± 0.013
288.13 K, 317.7 kPa, x1 = 0.5401	10.6307 ± 0.017
288.13 K, 424.11 kPa, x1 = 0.5401	14.5146 ± 0.02
288.13 K, 446.77 kPa, x1 = 0.6201	16.3715 ± 0.022
288.13 K, 448.02 kPa, x1 = 0.7822	18.5148 ± 0.025
288.13 K, 514.46 kPa, x1 = 0.5401	17.9692 ± 0.023
288.13 K, 613.19 kPa, x1 = 0.5401	21.9339 ± 0.027
288.14 K, 209.2 kPa, x1 = 0.5401	6.8504 ± 0.014
288.14 K, 232.81 kPa, x1 = 0.6201	8.1461 ± 0.016
288.14 K, 332.05 kPa, x1 = 0.6201	11.8593 ± 0.018
288.15 K, 122.39 kPa, x1 = 0.6201	4.191 ± 0.013
288.15 K, 553.06 kPa, x1 = 0.6201	20.7897 ± 0.026
288.43 K, 753.42 kPa, x1 = 0.2391	21.238 ± 0.025
288.45 K, 459.95 kPa, x1 = 0.2391	12.1079 ± 0.016
288.45 K, 680.21 kPa, x1 = 0.2391	18.823 ± 0.022
288.46 K, 121.21 kPa, x1 = 0.2391	2.9907 ± 0.0098
288.46 K, 302.44 kPa, x1 = 0.2391	7.7138 ± 0.013
288.46 K, 384.07 kPa, x1 = 0.2391	9.9536 ± 0.014
288.46 K, 571.46 kPa, x1 = 0.2391	15.4131 ± 0.019
288.47 K, 209.6 kPa, x1 = 0.2391	5.253 ± 0.011
293.14 K, 105.81 kPa, x1 = 0.7822	3.9639 ± 0.015
293.15 K, 425.23 kPa, x1 = 0.7822	17.0517 ± 0.024
293.15 K, 454.02 kPa, x1 = 0.5401	15.2811 ± 0.021
293.15 K, 540.93 kPa, x1 = 0.7822	22.3179 ± 0.029
293.15 K, 558.53 kPa, x1 = 0.5401	19.2207 ± 0.024
293.15 K, 637.77 kPa, x1 = 0.7822	27.0005 ± 0.033
293.15 K, 758.84 kPa, x1 = 0.5401	27.3827 ± 0.032
293.15 K, 856.96 kPa, x1 = 0.5401	31.7378 ± 0.036
293.16 K, 103.22 kPa, x1 = 0.5401	3.2534 ± 0.012
293.16 K, 213.45 kPa, x1 = 0.7822	8.1673 ± 0.017
293.16 K, 216.96 kPa, x1 = 0.5401	6.9744 ± 0.014
293.16 K, 311.55 kPa, x1 = 0.7822	12.1753 ± 0.02
293.16 K, 328.59 kPa, x1 = 0.5401	10.787 ± 0.017
293.16 K, 662.93 kPa, x1 = 0.5401	23.3629 ± 0.028
293.17 K, 427.29 kPa, x1 = 0.6201	15.2346 ± 0.021
293.17 K, 611.78 kPa, x1 = 0.6201	22.7331 ± 0.028
293.18 K, 124.6 kPa, x1 = 0.6201	4.1917 ± 0.013
293.18 K, 229.76 kPa, x1 = 0.6201	7.8762 ± 0.015
293.18 K, 328.76 kPa, x1 = 0.6201	11.4874 ± 0.018
293.18 K, 525.37 kPa, x1 = 0.6201	19.1338 ± 0.025
293.19 K, 728.09 kPa, x1 = 0.6201	27.8461 ± 0.033

From the NIST ThermoML archive (doi:10.1016/j.jct.2014.10.001)
